# Laboratory results: patent publication US4061740A, “Liquid compositions containing a polyethylene glycol safener and an organophosphorus pesticide” (priority 1976, dated 1977)
# System: Root-knot Nematode (Meloidogyne incognita)
# Experiment: Control of root-knot nematode on tomato in the greenhouse
# Type: in vivo, Meloidogyne incognita (on tomato, Lycopersicon esculentum)
# From the text: Evaluation of a liquid formulation consisting of a solution of 2-diethoxyphosphinylimino-1,3-dithietane in polyethylene glycol for the control of root-knot nematode (Meloidogyne incognita) on tomato in the greenhouse.
# 1. 2-Diethoxyphosphinylimino-1,3-dithietane, 91% real. (Active ingredient; a.i.)
# 2. Liquid formulation consisting of 20.9%, by weight, of a.i. and 79.1%, by weight, of polyethylene glycol of an average molecular weight of 400.
# Tomato (Lycopersicon esculentum; Cv. Bonny Best).
# Root-knot Nematode (Meloidogyne incognita) inoculum. [formula] 2-Diethoxyphosphinylimino-1,3-dithietane at 0.75 mg, 1.5 mg and 3.0 mg/liter of soil. Polyethylene glycol blank at 14.4 mg/liter of soil.
# All compounds are made up as acetone solutions. One liter of moist potting soil is placed in a suitable stainless steel beaker. One ml of candidate solution is distributed, drop by drop, over the surface of the soil. The beaker is then capped and placed on an off-center rotary mixer and mixed for 2 minutes (about 60 revolutions). After mixing, the soil is divided between two 0.5 liter paper cups by filling the cups half full of soil, then distributing 25 ml root-knot nematode inoculum on the soil and filling the remainder of the container with treated soil. Seedling tomato plants are transplanted into the cups of soil the same day, watered and removed to the greenhouse. After about 4 weeks, the tomato plants are carefully removed from the containers, the soil washed from the roots, and the roots are then examined for nematode galling.
# The roots are indexed for galling by the following system: […]
structure (smiles),measurement,setting,value
"CCOP(=O)(N=C1SCS1)OCC [Formulation 1, 2-Diethoxyphosphinylimino-1,3-dithietane]","Root-knot index, Average of 3 Replicates",0.75 mg/l active ingredient,7.0
same,Root-knot index,"0.75 mg/l active ingredient, replicate 1",8 (61-70% of roots galled)
same,Root-knot index,"0.75 mg/l active ingredient, replicate 2",8 (61-70% of roots galled)
same,Root-knot index,"0.75 mg/l active ingredient, replicate 3",5 (31-40% of roots galled)
same,protection of the tomato roots from the root-knot nematode,0.75 mg/l of soil,poor
same,"Root-knot index, Average of 3 Replicates",1.5 mg/l active ingredient,4.7
same,Root-knot index,"1.5 mg/l active ingredient, replicate 1",6 (41-50% of roots galled)
same,Root-knot index,"1.5 mg/l active ingredient, replicate 2",6 (41-50% of roots galled)
same,Root-knot index,"1.5 mg/l active ingredient, replicate 3",2 (6-10% of roots galled)
same,protection of the tomato roots from the root-knot nematode,1.5 mg/l of soil,poor
same,Root-knot index,"3.0 mg/l active ingredient, replicate 1",0
same,Root-knot index,"3.0 mg/l active ingredient, replicate 2",0
same,Root-knot index,"3.0 mg/l active ingredient, replicate 3",T (less than 1% of roots with galls.)
same,protection of the tomato roots from the root-knot nematode,3.0 mg/l of soil,excellent
